In US20090318396A1, “CORTICOSTEROID LINKED BETA-AGONIST COMPOUNDS FOR USE IN THERAPY” (priority 2008, published 2009):

Legend:
[1] = system: tobacco-smoke-induced airway inflammation; test: Tobacco smoke model of airway inflammation in mice; assay type: in vivo, female C3H mice; details: 0.57 mg/kg i.t.; mean ± s.e.m.
Description: Vehicle and test articles are delivered by intratracheal instillation in 10% ethanol water to animals anesthetized with 3-5% isoflurane (n=8 animals per test article group). All compounds will be delivered on a daily (5 days per week) schedule for 3 weeks during the smoke exposures. Mice were exposed to cigarette smoke for 6 hours per day, 5 days per week for 3 weeks, in H1000 or H2000 chambers. Type 2R4F research cigarettes (Kentucky Tobacco Research and Development Center) were used in the study. Total particulate material (TPM) exposure was kept at […] for the first week to allow animals to reduce adverse effects during adaptation to smoke exposure. TPM exposure was maintained between 100 and 250 mg TPM/m^3 during the remainder of the study. After 3 weeks, animals were euthanized and bronchoalveolar lavage fluid was obtained for cell differentials and cytokine analysis by Luminex multiplex immunoassay.

[2] = system: ragweed-induced bronchoconstriction; test: Ragweed-induced bronchoconstriction in dogs; assay type: in vivo, beagle dogs; details: mean ± s.e.m.
Description: The compound of Example 52 was assesed for bronchodilator activity in a ragweed-induced bronchoconstriction model in beagle dogs. Dogs were mechanically ventilated during each experiment. Airflow and tidal volume were measured using a differential pressure transducer located in front of the endotracheal tube. An esophageal balloon catheter placed in the esophagus was used to determine transpulmonary pressure. Pulmonary resistance and dynamic lung compliance were calculated from the simultaneous measurement of transpulmonary pressure and respiratory flow. The canine exposure system was designed to expose an anesthetized animal via an intubation tube. Dogs were administered vehicle or test article by inhalation 30 minutes before ragweed antigen exposure (n=4). Dogs were challenged with ragweed antigen (ragweed short, Ambrosia artemisifolia, Greer, Lenoir, N.C.) by inhalation (5 breaths). Immediately following ragweed challenge, changes in pulmonary resistance and compliance were measured for up to 30 minutes.

[3] = system: Ascaris suum antigen-induced bronchoconstriction and airway hyperreactivity; test: Ascaris suum-induced pulmonary responses in sheep; assay type: in vivo; details: for Bronchoconstriction, Lung Resistance (% Increase) / Hyperreactivity PC400: n=4
Description: (§1) One breath unit is defined as one breath of a 1% w/v carbachol solution. Test article was administered either by a pre-dosing or duration of action protocol. In the pre-dosing regimen, animals were dosed once daily for four days, with the last dose administered 1 hr before antigen. In the duration of action regimen, animals were dosed once daily for four days, with the last dose administered 24 hours before antigen. Test article, Ascaris antigen, and carbachol were administered by nebulized aerosol to intubated sheep.

[4] = system: carbachol-induced bronchoconstriction; test: Carbachol-induced bronchoconstriction in sheep; assay type: in vivo; details: Example 52 4.7 mg, Salmeterol 2.5 mg, mean ± s.e.m, n=4
Description: as §1, with “Bronchoconstriction was evaluated” for “One breath unit is defined”, “a function” for “one breath”, “increased pulmonary resistance following” for “a 1% w/v”, “challenge. […]” for “solution.”, “carbachol challenge.” for “antigen.”, “article” for “article, Ascaris antigen,”

[5] = Drug levels in plasma, BALF and lung after IT administration in the rat
Description: Compounds of Examples 52 and 83 were formulated for intratracheal (IT) dosing in 10% EtOH, 90% Sterile Water, and dosed in male Sprague-Dawley rats at 3 mg/kg (Example 52) and 1 mg/kg (Example 83). Each dosing group consisted of 3 male, naïve purebred Sprague-Dawley rats. At dosing, the animals weighed ˜0.30 kg. The animals were fasted overnight prior to dose administration and up to 2 hr after dosing. The compounds were administered IT using a Penn Century Microsprayer (Model 1A-1B).
Blood samples were collected at 0.5, 2, and 4 hours post-dose. Each blood sample (0.5-0.6 mL per sample) was collected via the orbital sinus (following anesthesia for BAL procedure) into tubes containing EDTA anti-coagulant into containers surrounded by dry ice at 0.5, 2 and 4 hr (mean, n=6). Blood samples were stored at −20±5° C. until shipped for analysis.
The animals were anesthetized with an intramuscular (IM) injection of a ketamine/xylazine/acepromazine (80/10/2 mg/kg) cocktail at a dose volume of 1.1 mL/kg. A cannula (modified Bard® infant feeding tube) was inserted into the trachea. Warmed sterile saline was injected into the lungs. The lungs were gently massaged by palpation of the chest for approximately 45 seconds. The fluid (BALF) was recovered and placed on ice. The procedure was repeated two more times, and all three BALF samples pooled. The fluid was centrifuged under refrigerated conditions at 350 g for 10 minutes. The supernatant and cell pellet were collected and stored at approximately −70° C. until shipped for analysis.
Immediately following each BAL procedure, the lungs from each animal were removed, blotted dry, weighed, and stored frozen at −70° C. until shipped for analysis.
An LC/MS/MS method was used to measure the concentration of compound in plasma.
Add 3×w/v of 1×PBS buffer (90:10-PBS:ACN) to each lung tissue. Homogenize the sample w/Polytron (PT1200) and take 50 uL of supernatant and inject to LC/MSMS.
An aliquot of 50 μL of each plasma sample was treated with 100 mL of acetonitrile (ACN) containing internal standard. After the protein precipitation, an aliquot of 100 μL of the supernatant was transferred to a clean 96-well plate and mixed with 100 μL of water. An aliquot of 30 μL of the above solution was injected to the TSQ Ultra Quantum LC/MS/MS system.
A HyPurity C18 HPLC column (30×2.1 mm, 5μ) from ThermoHypersil (Part #: 22105-032130) was used. Mobile phase A contained 1% acetonitrile in 10 mM ammonium formate aqueous solution with 1% formic acid. Mobile phase B contained 80% acetonitrile in 10 mM ammonium formate with 1% formic acid. An Agilent 1100 series binary pump (P/N G1312A Bin Pump) was used for elution and separation. HTS Pal autosampler from LEAP Technologies, Carrboro, N.C. was used.
TSQ Quantum Ultra triple quadrupole mass spectrometer from Thermo Finnigan, San Jose, Calif. was used in selective reaction monitoring (SRM) operation mode, Tune file:

[6] = analyte after IT administration of Example 83, 1 mg/kg, 0.5 hr
[7] = analyte after IT administration of Example 83, 1 mg/kg, 2.0 hr
[8] = analyte after IT administration of Example 83, 1 mg/kg, 4.0 hr

In the case of `OCc1cc(C(O)CNCCCCCCOCCCCc2ccccc2)ccc1O` (stereo not drawn) [Salmeterol Xinafoate, salmeterol xinafoate], the IL-1α [1] is reported as 4.22 ± 0.73 pg/mL, the MIP-1α [1] is reported as 6.09 ± 1.38 pg/mL and the Neutrophils [1] is reported as 10.9 ± 2.5 ×10^4/ml. The “Pulmonary Resistance (% of Baseline)” value ([2]; 3 μg/kg by inhalation) was 265.6 ± 38.8 % of Baseline, the “Pulmonary Resistance (% of Baseline)” value ([2]; 10 μg/kg by inhalation 30 minutes before ragweed, n=4) was 177.8 ± 14.4 % of Baseline and the “Bronchoconstriction, Lung Resistance (% Increase)” value (shortened to “Bronchoconstriction … (% Increase)”) ([3]; Duration of action regimen (last dose 24 hours before antigen), Post-Ascaris, Example 52 4.7 mg, ciclesonide 2.2 mg, salmeterol xinafoate 2.5 mg) was 370 % Increase. The “Bronchoconstriction … (% Increase)” value ([3]; Duration of action regimen, 1 hour) was 213 % Increase, the “Bronchoconstriction … (% Increase)” value ([3]; Duration of action regimen, 2 hours) was 114 % Increase and the “Bronchoconstriction … (% Increase)” value ([3]; Duration of action regimen, 3 hours) was 64 % Increase. For the same compound, the “Bronchoconstriction … (% Increase)” value ([3]; Duration of action regimen, 4 hours) was 25 % Increase, the “Bronchoconstriction … (% Increase)” value ([3]; Duration of action regimen, 5 hours) was 54 % Increase and the “Bronchoconstriction … (% Increase)” value ([3]; Duration of action regimen, 6 hours) was 86 % Increase. For the same compound, the “Bronchoconstriction … (% Increase)” value ([3]; Duration of action regimen, 6.5 hours) was 85 % Increase, the “Bronchoconstriction … (% Increase)” value ([3]; Duration of action regimen, 7 hours) was 83 % Increase and the “Bronchoconstriction … (% Increase)” value ([3]; Duration of action regimen, 7.5 hours) was 76 % Increase. The “Bronchoconstriction … (% Increase)” value ([3]; Duration of action regimen, 8 hours) was 72 % Increase, the “Hyperreactivity PC400” value ([3]; Duration of action regimen, Baseline, Example 52 4.7 mg, ciclesonide 2.2 mg, salmeterol xinafoate 2.5 mg) was 29.5 carbachol breath units and the “Hyperreactivity PC400” value ([3]; Duration of action regimen, Post-Antigen) was 22.8 carbachol breath units.
In the case of `OCc1cc(C(O)CNCCCCCCOCCCCc2ccccc2)ccc1O` (stereo not drawn) [salmeterol], the “Effect on late phase bronchoconstriction and development of airway hyperreactivity” value ([3]; duration of action regimen) is reported as “reduced efficacy”, the “Lung Resistance (% Increase) at 2% Carbachol” value ([4]; Duration of action regimen (last dose 24 hours before carbachol), Ciclesonide 2.2 mg + Salmeterol Xinafoate 2.5 mg) is reported as 594 ± 56 % Increase and the “Lung Resistance (% Increase) at 2% Carbachol” value ([4]; Predosing regimen (last dose 1 hr before carbachol)) is reported as 352 ± 27 % Increase. The “Plasma Conc” value ([5]; analyte after IT administration of Example 52, 3 mg/kg, 0.5 hr) was “BLQ”, the “Plasma Conc” value ([5]; analyte after IT administration of Example 52, 3 mg/kg, 2.0 hr) was “BLQ” and the “Plasma Conc” value ([5]; analyte after IT administration of Example 52, 3 mg/kg, 4.0 hr) was “BLQ”. The “BALF Conc” value [5, 6] was “BLQ”, the “Plasma Conc” value [5, 6] was “BLQ” and the “BALF Conc” value [5, 7] was “BLQ”. The “Plasma Conc” value [5, 7] was “BLQ”, the “BALF Conc” value [5, 8] was “BLQ” and the “Plasma Conc” value [5, 8] was “BLQ”.
